Columns and labels:
HCV replicon = HCV replicon assay (Huh-Luc cells, luciferase read-out); assay type: cell-based, HCV type Ib; settings: Hepatitis C virus, 72 h, three days incubation, luciferase activity
Excerpt: The compounds of formula (I) were examined for inhibitory activity in the HCV replicon. This cellular assay is based on a bicistronic expression construct, as described by Lohmann et al. (1999) Science vol. 285 pp. 110-113 with modifications described by Krieger et al. (2001) Journal of Virology 75: 4614-4624, in a multi-target screening strategy.
In essence, the method was as follows:
The assay utilized the stably transfected cell line Huh-7 luc/neo (hereafter referred to as Huh-Luc). This cell line harbors an RNA encoding a bicistronic expression construct comprising the wild type NS3-NS5B regions of HCV type Ib translated from an Internal Ribosome Entry Site (IRES) from encephalomyocarditis virus (EMCV), preceded by a reporter portion (FfL-luciferase), and a selectable marker portion (neo^R, neomycine phosphotransferase). The construct is flanked by 5′ and 3′ NTRs (non-translated regions) from HCV type Ib. Continued culture of the replicon cells in the presence of G418 (neo^R) is dependent on the replication of the HCV RNA. The stably transfected replicon cells that express HCV RNA, which replicates autonomously and to high levels, encoding inter alia luciferase, were used for screening the antiviral compounds.
The replicon cells were plated in 384 well plates in the presence of the test and control compounds which were added in various concentrations. Following an incubation of three days, HCV replication was measured by assaying luciferase activity (using standard luciferase assay substrates and reagents and a Perkin Elmer ViewLux™ ultraHTS microplate imager). Replicon cells in the control cultures have high luciferase expression in the absence of any inhibitor. The inhibitory activity of the compound on luciferase activity was monitored on the Huh-Luc cells, enabling a dose-response curve for each test compound. EC50 values were then calculated, which represent the amount of compound required to decrease the level of detected luciferase activity by 50%, or more specifically, to reduce the ability of the genetically linked HCV replicon RNA to replicate.

Cytotoxicity (Huh-7) = assay type: cell-based; settings: human, Huh-7 cells
Excerpt: The in vitro antiviral activity against HCV of the compounds of formula I can be tested in a cellular HCV replicon system based on Lohmann et al. (1999) Science 285:110-113, with the further modifications described by Krieger et al. (2001) Journal of Virology 75: 4614-4624 (incorporated herein by reference), which is further exemplified in the examples section. This model, while not a complete infection model for HCV, is widely accepted as the most robust and efficient model of autonomous HCV RNA replication currently available. It will be appreciated that it is important to distinguish between compounds that specifically interfere with HCV functions from those that exert cytotoxic or cytostatic effects in the HCV replicon model, and as a consequence cause a decrease in HCV RNA or linked reporter enzyme concentration. Assays are known in the field for the evaluation of cellular cytotoxicity based for example on the activity of mitochondrial enzymes using fluorogenic redox dyes such as resazurin. Furthermore, cellular counter screens exist for the evaluation of non-selective inhibition of linked reporter gene activity, such as firefly luciferase. Appropriate cell types can be equipped by stable transfection with a luciferase reporter gene whose expression is dependent on a constitutively active gene promoter, and such cells can be used as a counter-screen to eliminate non-selective inhibitors.

SMILES | EC50 (HCV replicon) | CC50 (Cytotoxicity (Huh-7))
O=C(Cc1ccccc1)N1CCC[C@H]1c1nc(-c2cccc(Oc3ccc(-c4cnc([C@@H]5CCCN5C(=O)Cc5ccccc5)[nH]4)cc3)c2)c[nH]1 [Example 9, 2-phenyl-1-((S)-2-(5-(4-(3-(2-((S)-1-(2-phenylacetyl)pyrrolidin-2-yl)-1H-imidazol-4-yl)phenoxy)phenyl)-1H-imidazol-2-yl)pyrrolidin-1-yl)ethanone] | 77 nM | > 31.5 µM
O=C(C(O)c1ccccc1)N1CCC[C@H]1c1nc(-c2cccc(Oc3ccc(-c4cnc([C@@H]5CCCN5C(=O)C(O)c5ccccc5)[nH]4)cc3)c2)c[nH]1 (stereo partly drawn) [Example 10, 2-hydroxy-1-((2S)-2-(5-(4-(3-(2-((2S)-1-(2-hydroxy-2-phenylacetyl)-pyrrolidin-2-yl)-1H-imidazol-4-yl)phenoxy)phenyl)-1H-imidazol-2-yl)pyrrolidin-1-yl)-2-phenylethanone] | < 0.5 nM | 4.86 µM
Cc1cccc(CC(=O)N2CCC[C@H]2c2nc(-c3cccc(Oc4ccc(-c5cnc([C@@H]6CCCN6C(=O)Cc6cccc(C)c6)[nH]5)cc4)c3)c[nH]2)c1 [Example 11, 2-m-tolyl-1-((2S)-2-(5-(4-(3-(2-((S)-1-(2-m-tolylacetyl)pyrrolidin-2-yl)-1H-imidazol-4-yl)phenoxy)phenyl)-1H-imidazol-2-yl)pyrrolidin-1-yl)ethanone] | 6180 nM | > 31.5 µM
O=C(Cc1cccnc1)N1CCC[C@H]1c1nc(-c2cccc(Oc3ccc(-c4cnc([C@@H]5CCCN5C(=O)Cc5cccnc5)[nH]4)cc3)c2)c[nH]1 [Example 18] | 54.3 nM | > 31.5 µM
O=C(Cc1ccc2c(c1)OCO2)N1CCC[C@H]1c1nc(-c2cccc(Oc3ccc(-c4cnc([C@@H]5CCCN5C(=O)Cc5ccc6c(c5)OCO6)[nH]4)cc3)c2)c[nH]1 [Example 19] | 1070 nM | > 31.5 µM
O=C(C(=O)N1CCC[C@H]1c1nc(-c2cccc(Oc3ccc(-c4cnc([C@@H]5CCCN5C(=O)C(=O)c5ccccc5)[nH]4)cc3)c2)c[nH]1)c1ccccc1 [Example 20] | 58.2 nM | > 31.5 µM
O=C(CCS(=O)(=O)c1ccccc1)N1CCC[C@H]1c1nc(-c2cccc(Oc3ccc(-c4cnc([C@@H]5CCCN5C(=O)CCS(=O)(=O)c5ccccc5)[nH]4)cc3)c2)c[nH]1 [Example 21] | 3700 nM | > 31.5 µM
O=C([C@H]1CCCO1)N1CCC[C@H]1c1nc(-c2cccc(Oc3ccc(-c4cnc([C@@H]5CCCN5C(=O)[C@H]5CCCO5)[nH]4)cc3)c2)c[nH]1 [Example 22] | 1090 nM | > 31.5 µM
O=C([C@@H](O)c1ccccc1)N1CCC[C@H]1c1nc(-c2cccc(Oc3ccc(-c4cnc([C@@H]5CCCN5C(=O)[C@@H](O)c5ccccc5)[nH]4)cc3)c2)c[nH]1 [Example 23] | 60.8 nM | 3.66 µM
O=C(Cc1ccccc1OC(F)(F)F)N1CCC[C@H]1c1nc(-c2cccc(Oc3ccc(-c4cnc([C@@H]5CCCN5C(=O)Cc5ccccc5OC(F)(F)F)[nH]4)cc3)c2)c[nH]1 [Example 24] | 14.4 nM | > 31.5 µM
COc1c(F)cc(CC(=O)N2CCC[C@H]2c2nc(-c3cccc(Oc4ccc(-c5cnc([C@@H]6CCCN6C(=O)Cc6cc(F)c(OC)c(F)c6)[nH]5)cc4)c3)c[nH]2)cc1F [Example 25] | 3390 nM | > 31.5 µM
O=C(CCc1ccccc1F)N1CCC[C@H]1c1nc(-c2cccc(Oc3ccc(-c4cnc([C@@H]5CCCN5C(=O)CCc5ccccc5F)[nH]4)cc3)c2)c[nH]1 [Example 26] | 2310 nM | > 31.5 µM
COc1cccc(CCC(=O)N2CCC[C@H]2c2nc(-c3cccc(Oc4ccc(-c5cnc([C@@H]6CCCN6C(=O)CCc6cccc(OC)c6)[nH]5)cc4)c3)c[nH]2)c1 [Example 27] | 3530 nM | > 31.5 µM
O=C(CC1CCCCC1)N1CCC[C@H]1c1nc(-c2cccc(Oc3ccc(-c4cnc([C@@H]5CCCN5C(=O)CC5CCCCC5)[nH]4)cc3)c2)c[nH]1 [Example 28] | 5470 nM | > 31.5 µM
O=C(CCc1cccnc1)N1CCC[C@H]1c1nc(-c2cccc(Oc3ccc(-c4cnc([C@@H]5CCCN5C(=O)CCc5cccnc5)[nH]4)cc3)c2)c[nH]1 [Example 29] | 3.98 nM | > 31.5 µM
CN(C)C(C(=O)N1CCC[C@H]1c1nc(-c2cccc(Oc3ccc(-c4cnc([C@@H]5CCCN5C(=O)C(c5ccc(Cl)cc5)N(C)C)[nH]4)cc3)c2)c[nH]1)c1ccc(Cl)cc1 (stereo partly shown) [Example 30] | 3.62 nM | 4.6 µM

SMILES | EC50 (HCV replicon) | CC50 (Cytotoxicity (Huh-7))
CC(C)[C@@H](C(=O)N1CCC[C@H]1c1nc(-c2cccc(Oc3ccc(-c4cnc([C@@H]5CCCN5C(=O)[C@H](C(C)C)N(C)C)[nH]4)cc3)c2)c[nH]1)N(C)C [Example 31] | 1160 nM | 2.87 µM
O=C(c1ccoc1)N1CCC[C@H]1c1nc(-c2cccc(Oc3ccc(-c4cnc([C@@H]5CCCN5C(=O)c5ccoc5)[nH]4)cc3)c2)c[nH]1 [Example 32] | 978 nM | > 31.5 µM
Cc1nc(C(=O)N2CCC[C@H]2c2nc(-c3cccc(Oc4ccc(-c5cnc([C@@H]6CCCN6C(=O)c6nc(C)oc6C)[nH]5)cc4)c3)c[nH]2)c(C)o1 [Example 33] | 864 nM | > 31.5 µM
O=C(c1ccc(F)cc1)N1CCC[C@H]1c1nc(-c2cccc(Oc3ccc(-c4cnc([C@@H]5CCCN5C(=O)c5ccc(F)cc5)[nH]4)cc3)c2)c[nH]1 [Example 34] | 4340 nM | > 31.5 µM
O=C(C(c1ccccc1)n1ccnc1)N1CCC[C@H]1c1nc(-c2cccc(Oc3ccc(-c4cnc([C@@H]5CCCN5C(=O)C(c5ccccc5)n5ccnc5)[nH]4)cc3)c2)c[nH]1 (stereo partly shown) [Example 35] | 4.72 nM | > 31.5 µM
CC(C)C[C@@H](C(=O)N1CCC[C@H]1c1nc(-c2cccc(Oc3ccc(-c4cnc([C@@H]5CCCN5C(=O)[C@H](CC(C)C)N(C)C)[nH]4)cc3)c2)c[nH]1)N(C)C [Example 36] | 3030 nM | 7.76 µM
O=C(c1ccccn1)N1CCC[C@H]1c1nc(-c2cccc(Oc3ccc(-c4cnc([C@@H]5CCCN5C(=O)c5ccccn5)[nH]4)cc3)c2)c[nH]1 [Example 37] | 15400 nM | > 31.5 µM
O=C(c1cccnc1)N1CCC[C@H]1c1nc(-c2cccc(Oc3ccc(-c4cnc([C@@H]5CCCN5C(=O)c5cccnc5)[nH]4)cc3)c2)c[nH]1 [Example 38] | 1270 nM | > 31.5 µM
COC(=O)N[C@H](C(=O)N1CCC[C@H]1c1ncc(-c2ccc(Oc3cccc(-c4cnc([C@@H]5CCCN5C(=O)[C@@H](NC(=O)OC)[C@@H](C)OC)[nH]4)c3)cc2)[nH]1)[C@@H](C)OC [Example 39] | 0.0794 nM | > 31.5 µM
COC(=O)N[C@H](C(=O)N1CCC[C@H]1c1ncc(-c2ccc(Oc3cccc(-c4cnc([C@@H]5CCCN5C(=O)[C@@H](NC(=O)OC)C(C)(C)C)[nH]4)c3)cc2)[nH]1)C(C)(C)C [Example 40] | 0.165 nM | 12.6 µM
CN(C)CCC(=O)N1CCC[C@H]1c1nc(-c2cccc(Oc3ccc(-c4cnc([C@@H]5CCCN5C(=O)CCN(C)C)[nH]4)cc3)c2)c[nH]1 [Example 41] | 1240 nM | > 31.5 µM
COC(=O)N[C@H](C(=O)N1CCC[C@H]1c1nc(-c2cccc(Oc3ccc(-c4cnc([C@@H]5CCCN5C(=O)[C@@H](NC(=O)OC)C(C)C)[nH]4)cc3)c2)c[nH]1)C(C)C [Example 42] | 0.0433 nM | 18.6 µM
CN(C)[C@@H](C(=O)N1CCC[C@H]1c1ncc(-c2ccc(Oc3cccc(-c4cnc([C@@H]5CCCN5C(=O)[C@@H](c5ccccc5)N(C)C)[nH]4)c3)cc2)[nH]1)c1ccccc1 [Example 43] | 0.114 nM | 0.7 µM
CCN(CC)[C@@H](C(=O)N1CCC[C@H]1c1nc(-c2cccc(Oc3ccc(-c4cnc([C@@H]5CCCN5C(=O)[C@@H](c5ccccc5)N(CC)CC)[nH]4)cc3)c2)c[nH]1)c1ccccc1 [Example 44] | 0.12 nM | 0.78 µM
COc1ccc(Oc2ccc(-c3c[nH]c([C@@H]4CCCN4C(=O)[C@@H](c4ccccc4)N(C)C)n3)cc2)cc1-c1c[nH]c([C@@H]2CCCN2C(=O)[C@@H](c2ccccc2)N(C)C)n1 [Example 47] | 0.705 nM | –
